Results published in patent US20080233558A1, “Inhibitors of viral entry screening method” (priority 2005, published 2008).

Columns and labels:
[1] = tested on: MLV(VSV-G Env) pseudotype particles; assay type: cell-based
[2] = tested on: MLV(VSV-G Env) particles that transduce a gfp-gene; assay type: cell-based
[3] = tested on: MLV(VSV-G Env) pseudotype particles; assay type: cell-based; remark: listed apart in the source
[4] = tested on: indicator cells (HEK293T expressing tPA-HA); details: increasing inhibitor concentrations up to 1 mM; due to cytotoxic effects

Cc1cn([C@H]2C[C@H](N=[N+]=[N-])[C@@H](CO)O2)c(=O)[nH]c1=O [AZT]
fluorescence readout signal with increasing concentrations of the inhibitor [1]: increased signal intensities
readout signal at concentrations higher than the optimal concentration [1]: decreased readout signals
gfp fluorescence signal at the highest inhibitor concentration [2]: lowest fluorescence signal
cell populations after α-HA antibody staining [3]: just one (fluorescence positive) population
fluorescence signal of indicator cells in absence of any particles [4]: decreasing fluorescence intensities
